Measured values published in PubChem BioAssay (NCI).
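Where inhibition never reached the appropriate level, the endpoint shown equals the highest concentration tested. Otherwise, values were interpolated linearly from a five-concentration, 48-hour dose response in 96-well plates. At the TGI there is no net growth.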

Tests used:
Assay in all cases: NCI anticancer screen, dose series, 48 h
[1] = tested on: M14 melanoma
[2] = tested on: OVCAR-8 ovarian
[3] = tested on: MDA-N
[4] = tested on: SF-295 CNS
[5] = tested on: CCRF-CEM leukemia
[6] = tested on: SK-OV-3 ovarian
[7] = tested on: SK-MEL-28 melanoma
[8] = tested on: NCI-H23 lung
[9] = tested on: UACC-62 melanoma
[10] = tested on: EKVX NSCLC
[11] = tested on: HCT-15 colon
[12] = tested on: T-47D breast
[13] = tested on: SNB-19 CNS
[14] = tested on: MDA-MB-231 breast
[15] = tested on: HOP-62 NSCLC
[16] = tested on: BT-549 breast
[17] = tested on: OVCAR-3 ovarian
[18] = tested on: OVCAR-5 ovarian
[19] = tested on: SF-539 CNS
[20] = tested on: SK-MEL-5 melanoma

| SMILES | TGI [1] | TGI [2] | TGI [3] | TGI [4] | TGI [5] | TGI [6] | TGI [7] | TGI [8] | TGI [9] | TGI [10] | TGI [11] | TGI [12] | TGI [13] | TGI [14] | TGI [15] | TGI [16] | TGI [17] | TGI [18] | TGI [19] | TGI [20] |
| --- | --- | --- | --- | --- | --- | --- | --- | --- | --- | --- | --- | --- | --- | --- | --- | --- | --- | --- | --- | --- |
| c1ccc(C2SCc3nc4cc5ccccc5cc4n32)cc1 (stereo not drawn) | > 100 µM | > 100 µM | > 100 µM | > 100 µM | > 100 µM | > 100 µM | > 100 µM | > 100 µM | > 100 µM | > 100 µM | > 100 µM | > 100 µM | > 100 µM | > 100 µM | > 100 µM | > 100 µM | > 100 µM | > 100 µM | > 100 µM | – |
| Cc1ccc(S(=O)(=O)/N=C(\N)N(C)N=O)cc1 | > 100 µM | > 100 µM | > 100 µM | > 100 µM | > 100 µM | > 100 µM | > 100 µM | > 100 µM | > 100 µM | > 100 µM | > 100 µM | > 100 µM | > 100 µM | > 100 µM | > 100 µM | > 100 µM | > 100 µM | > 100 µM | > 100 µM | – |
| O=C1c2ccccc2-c2c1c(-c1ccc([N+](=O)[O-])cc1)nc1ccc3ccccc3c21 | > 100 µM | > 100 µM | > 100 µM | > 100 µM | > 100 µM | > 100 µM | > 100 µM | > 100 µM | > 100 µM | > 100 µM | > 100 µM | > 100 µM | > 100 µM | > 100 µM | > 100 µM | > 100 µM | > 100 µM | > 100 µM | > 100 µM | – |
| O=C1C(Cl)=C(N2C(=O)CCCC2=O)C(=O)c2ccccc21 | 37.5 µM | 23.9 µM | 31 µM | > 100 µM | 23.3 µM | > 100 µM | 33.4 µM | 36 µM | 37.4 µM | 33.2 µM | 25.6 µM | 95.7 µM | – | 50.5 µM | > 100 µM | 36.2 µM | > 100 µM | 38.1 µM | 38 µM | 30.2 µM |
| CN(Cc1cnc2nc(N)nc(N)c2n1)c1ccc(C(=O)NCS(=O)(=O)O)cc1 | > 100 µM | > 100 µM | > 100 µM | > 100 µM | – | > 100 µM | > 100 µM | > 100 µM | > 100 µM | > 100 µM | > 100 µM | > 100 µM | > 100 µM | > 100 µM | > 100 µM | > 100 µM | > 100 µM | > 100 µM | > 100 µM | > 100 µM |
| N#Cc1nc(COCc2ccccc2)oc1N | > 100 µM | > 100 µM | > 100 µM | > 100 µM | > 100 µM | > 100 µM | > 100 µM | > 100 µM | > 100 µM | > 100 µM | > 100 µM | > 100 µM | > 100 µM | > 100 µM | > 100 µM | > 100 µM | > 100 µM | > 100 µM | > 100 µM | – |
| COc1ccc(N=C2C(=Nc3ccc(OC)cc3)N(S(=O)(=O)c3ccccc3)C(=S)N2c2ccccc2)cc1 | > 100 µM | > 100 µM | > 100 µM | > 100 µM | – | > 100 µM | > 100 µM | > 100 µM | > 100 µM | > 100 µM | > 100 µM | > 100 µM | > 100 µM | > 100 µM | > 100 µM | > 100 µM | > 100 µM | > 100 µM | > 100 µM | > 100 µM |
| Fc1ccc(OCc2nc3cc(C(F)(F)F)ccc3nc2-c2ccccc2)cc1 | > 100 µM | > 100 µM | > 100 µM | > 100 µM | > 93.1 µM | – | > 100 µM | > 100 µM | > 100 µM | > 100 µM | > 100 µM | > 100 µM | > 100 µM | > 100 µM | > 100 µM | > 100 µM | > 100 µM | > 100 µM | > 100 µM | > 100 µM |
| Cc1n[nH]c(=O)n1/N=C/c1cccs1 | > 100 µM | > 100 µM | > 100 µM | > 100 µM | > 100 µM | > 100 µM | > 100 µM | > 100 µM | > 100 µM | > 100 µM | > 100 µM | > 100 µM | > 100 µM | > 100 µM | > 100 µM | > 100 µM | > 100 µM | > 100 µM | > 100 µM | – |
| N#Cc1c(NCCc2ccc(F)cc2)c2ccccc2n2c1nc1ccccc12 | > 100 µM | 25.4 µM | > 100 µM | 65.4 µM | > 100 µM | > 100 µM | > 100 µM | 39.1 µM | 32.8 µM | 29.3 µM | > 100 µM | 95.6 µM | 51 µM | 36.3 µM | > 100 µM | 72.6 µM | 66.4 µM | > 100 µM | > 100 µM | – |
| CC(=O)OC[C@@H]1[C@H]2CC[C@]3(C)[C@@H](OC(C)=O)CC[C@H]3[C@@H]2CC[C@H]1C1(C)SCCS1 | > 25 µM | > 25 µM | > 25 µM | > 25 µM | > 25 µM | – | > 25 µM | > 25 µM | – | > 25 µM | > 25 µM | > 25 µM | > 25 µM | > 25 µM | > 25 µM | > 25 µM | > 25 µM | > 25 µM | > 25 µM | > 25 µM |
